Molecular target: T1, HDAC6 (Homo sapiens, UniProt Q9UBN7)
T1 sequence (Q9UBN7 1-1215): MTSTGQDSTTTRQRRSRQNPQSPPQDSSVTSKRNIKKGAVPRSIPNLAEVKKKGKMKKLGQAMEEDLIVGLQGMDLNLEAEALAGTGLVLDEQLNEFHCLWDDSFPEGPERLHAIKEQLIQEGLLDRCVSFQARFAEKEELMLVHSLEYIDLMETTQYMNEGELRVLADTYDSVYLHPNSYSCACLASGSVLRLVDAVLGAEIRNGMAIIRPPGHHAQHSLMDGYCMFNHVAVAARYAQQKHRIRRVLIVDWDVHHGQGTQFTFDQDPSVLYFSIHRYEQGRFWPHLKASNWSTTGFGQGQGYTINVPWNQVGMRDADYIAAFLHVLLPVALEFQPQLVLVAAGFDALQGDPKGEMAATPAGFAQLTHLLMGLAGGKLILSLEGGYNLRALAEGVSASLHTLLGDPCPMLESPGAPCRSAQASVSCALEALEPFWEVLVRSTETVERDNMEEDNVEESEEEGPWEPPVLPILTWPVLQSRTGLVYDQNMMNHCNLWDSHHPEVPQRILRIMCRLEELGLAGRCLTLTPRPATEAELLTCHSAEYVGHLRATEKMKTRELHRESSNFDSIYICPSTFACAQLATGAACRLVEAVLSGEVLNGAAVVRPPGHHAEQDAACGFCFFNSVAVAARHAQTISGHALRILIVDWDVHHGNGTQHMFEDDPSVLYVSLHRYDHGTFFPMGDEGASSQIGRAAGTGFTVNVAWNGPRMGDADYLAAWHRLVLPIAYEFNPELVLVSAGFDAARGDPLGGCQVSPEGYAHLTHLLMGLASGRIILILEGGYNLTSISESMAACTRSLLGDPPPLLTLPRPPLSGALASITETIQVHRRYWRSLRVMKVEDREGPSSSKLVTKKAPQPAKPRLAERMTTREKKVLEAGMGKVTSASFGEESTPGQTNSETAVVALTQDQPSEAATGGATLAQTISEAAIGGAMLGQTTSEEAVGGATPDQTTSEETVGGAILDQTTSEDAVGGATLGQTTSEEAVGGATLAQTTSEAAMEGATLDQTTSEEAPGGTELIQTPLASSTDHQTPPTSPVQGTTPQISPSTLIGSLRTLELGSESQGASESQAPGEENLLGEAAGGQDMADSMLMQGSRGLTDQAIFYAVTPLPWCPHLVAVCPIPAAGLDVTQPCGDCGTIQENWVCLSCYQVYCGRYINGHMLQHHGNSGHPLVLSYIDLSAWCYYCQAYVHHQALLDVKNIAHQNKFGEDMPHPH
Assay: HDAC isoform activity assay (Reaction Biology Corp.); values not shown in main text
Format: biochemical

CC(C)c1cc(C(=O)N(C)c2ccc(NC(=O)CCCCCCCC(=O)NO)cc2)c(O)cc1O [compound 26, MPT0G449]
HDAC isoform activity assay (Reaction Biology Corp.); values not shown in main t: HDAC6 was selected because MPT0G499 exhibited the most potent inhibition.

From PMC8119482, “A novel dual HDAC and HSP90 inhibitor, MPT0G449, downregulates oncogenic pathways in human acute leukemia in vitro and in vivo” (Oncogenesis, 2021)
